What follows are compounds tested against KRasG12D (Homo sapiens, UniProt P01116, G12D) (assay: KRAS inhibitory activity test, TR-FRET (inhibition of binding of KRasG12D to GTP, SOS/GTP nucleotide exchange)). Conditions: read-out: IC50 values of the compounds for inhibiting KRAS enzymes, G12D.
Format: biochemical
Description: • 1. […] Reagent Preparation: • a. Storage Reagents:
Prepare a 1L solution by mixing 20mL of 1000mM HEPES, 20mL of 500mM EDTA, 10mL of 5M sodium chloride, 0.1mL of 100% Tween 20, and 949.9mL of water. Sterilize by filtration and store at 4°C.
Prepare a 1L solution by mixing 20mL of 1000mM HEPES, 10mL of 1000mM magnesium chloride, 30mL of 5M sodium chloride, 0.05mL of 100% Tween 20, and 939.95mL of water. Sterilize by filtration and store at 4°C. 3) KRAS/Bodipy GDP/Tb-SA Mixture: Mix 9.5 µL of 95 µM KRasG12D protein with 440.5 µL of KRAS nucleotide exchange buffer. Incubate at room temperature for 1 hour. Then, mix with 8.4 µL of 17.9 µM Tb-SA, 1.8 µL of 5 mM Bodipy GDP, and 9539.8 µL of KRAS experimental buffer to prepare […]. After mixing, incubate at room temperature for 6 hours and store at -80°C.
• 1) KRAS Enzyme Solution: Mix 73.3 µL of KRAS/Bodipy GDP/Tb-SA mixture with 2126.7 µL of KRAS experimental buffer to prepare a 2200 µL solution. • 2) SOS/GTP Mixture
c. Experimental Procedure: Mix 1.59 µL of 166 µM SOS protein with 198 µL of 100 mM... GTP and 0.41 µL KRAS buffer were prepared to a 2200 µL solution. The stock solution concentration of the control compound was 1 mM, and the stock solution concentration of the test compound was 10 mM. 9 µL of the control compound and the test compound were transferred to a 384-LDV plate. The compound on the LDV plate was 3-fold diluted 10-point using Bravo. 9 nL of the compound on the LDV plate was transferred to the experimental plate using ECHO. 3 µL of a 3 nM Kras/0.5 nM TB-SA/30 nM BodipyGDP mixture and 3 µL of Ras buffer were added to each well of the experimental plate using a Dragonfly autopilot. The plate was centrifuged at 1000 rpm for 1 minute. The plate was incubated at room temperature for 1 hour. 3 µL of 120 nM SOS/9 mM KRAS buffer was added to each well of the experimental plate using a Dragonfly autopilot. The […] was centrifuged at 1000 rpm for 1 minute; the plate was incubated at room temperature for 1 hour; the plate was read and the data were recorded using Envision; the data were analyzed using Excel and Xlfit to calculate the IC50of the test compound. "++++" indicates IC50≤ 10 nM; "+++" indicates 10 nM < IC50≤ 100 nM; "++" indicates 100 nM < IC50≤ 2000 nM; "+" indicates 2000 nM < IC50.

Compound	IC50 [µM]
Cc1cc(N)nc(C2Cc3nc(OC[C@@]45CCCN4CC(=CF)C5)nc(N4CC5CCC(C4)N5)c3CS2(=O)=O)c1C(F)(F)F (stereo partly drawn) [Compound 19, 7-(6-amino-4-methyl-3-(trifluoromethyl)pyridin-2-yl)-2-(((S)-2-(fluoromethylene)tetrahydro-1H-pyrrolazin-7a(5H)-yl)methoxy)-4-(3,8-diazabicyclo[3.2.1]octane-3-yl)-7,8-dihydro-5H-thiopyrano[4,3-d]pyrimidine-6,6-dioxide]	≤ 0.01
C=C1CN2CCC[C@@]2(COc2nc3c(c(N4CC5CCC(C4)N5)n2)CS(=O)(=O)C(c2cc(N)cc(C)c2C(F)(F)F)C3)C1 (some centres unmarked) [Compound 38]	≤ 0.01
Cc1cc(N)nc([C@@H]2Cc3nc(OC[C@@]45CCCN4CC(=C(F)F)C5)nc(N4CC5CCC(C4)N5)c3CS2(=O)=O)c1C(F)(F)F [Compound 18A, (7S)-7-(6-amino-4-methyl-3-(trifluoromethyl)pyridin-2-yl)-2-(((S)-2-(difluoromethylene)tetrahydro-1H-pyrrolazin-7a(5H)-yl)methoxy)-4-(3,8-diazabicyclo[3.2.1]octane-3-yl)-7,8-dihydro-5H-thiopyrano[4,3-d]pyrimidine-6,6-dioxide]	≤ 0.01
CC#Cc1cc(N)c(F)c(C2Cc3nc(OC[C@@]45CCCN4C/C(=C\F)C5)nc(N4CC5CCC(C4)N5)c3CS2(=O)=O)c1C(F)(F)F (stereo partly drawn) [Compound 24, 7-(3-amino-2-fluoro-5-(prop-1-yn-1-yl)-6-(trifluoromethyl)phenyl)-4-(3,8-diazabicyclo[3.2.1]octane-3-yl)-2-(((S)-2-(fluoromethylene)tetrahydro-1H-pyrrolazin-7a(5H)-yl)methoxy)-7,8-dihydro-5H-thiopyrano[4,3-d]pyrimidine-6,6-dioxide]	≤ 0.01
Cc1cc(N)nc([C@@H]2Cc3nc(OC[C@@]45CCCN4C[C@H](F)C5)nc(N4C[C@H]5CC[C@@H](C4)N5)c3CS2(=O)=O)c1C(F)(F)F [Compound 3A, (7S)-7-(6-amino-4-methyl-3-(trifluoromethyl)pyridin-2-yl)-4-((1R,5S)-3,8-diazabicyclo[3.2.1]octane-3-yl)-2-(((2R,7AS)-2-fluorotetrahydro-1H-pyrrolazin-7a(5H)-yl)methoxy)-7,8-dihydro-5H-thiopyrano[4,3-d]pyrimidine 6,6-Dioxide]	0.01 to 0.1
Cc1cc(O)c(F)c([C@H]2Cc3nc(OC[C@@]45CCCN4C[C@H](F)C5)nc(N4C[C@H]5CC[C@@H](C4)N5)c3CS2(=O)=O)c1C(F)(F)F [Compound 2B, (7R)-4-((1R,5S)-3,8-diazabicyclo[3.2.1]octane-3-yl)-7-(2-fluoro-3-hydroxy-5-methyl-6-(trifluoromethyl)phenyl)-2-(((2R,7AS)-2-fluorotetrahydro-1H-pyrrolazin-7a(5H)-yl)methoxy)-7,8-dihydro-5H-thiopyrano[4,3-d]pyrimidine-6,6-dioxide]	≤ 0.01
CC#Cc1cc(N)c(F)c([C@@H]2Cc3nc(OC[C@@]45CCCN4CC(=C(F)F)C5)nc(N4CC5CCC(C4)N5)c3CS2(=O)=O)c1C(F)(F)F [Compound 23A, (7S)-7-(3-amino-2-fluoro-5-(prop-1-yn-1-yl)-6-(trifluoromethyl)phenyl)-4-(3,8-diazabicyclo[3.2.1]octane-3-yl)-2-(((S)-2-(difluoromethylene)tetrahydro-1H-pyrrolazin-7a(5H)-yl)methoxy)-7,8-dihydro-5H-thiopyrano[4,3-d]pyrimidine-6,6-dioxide]	≤ 0.01
Cc1cc(N)c(F)c([C@@H]2Cc3nc(OC[C@@]45CCCN4C[C@H](F)C5)nc(N4C[C@H]5CC[C@@H](C4)N5)c3CS2(=O)=O)c1C(F)(F)F [Compound 30A, (7S)-7-(3-amino-2-fluoro-5-methyl-6-(trifluoromethyl)phenyl)-4-((1R,5S)-3,8-diazabicyclo[3.2.1]octane-3-yl)-2-(((2R,7AS)-2-fluorotetrahydro-1H-pyrrolazin-7a(5H)-yl)methoxy)-7,8-dihydro-5H-thiopyrano[4,3-d]pyrimidine 6,6-Dioxide]	≤ 0.01
C=C1CN2CCC[C@@]2(COc2nc3c(c(N4CC5CCC(C4)N5)n2)CS(=O)(=O)[C@H](c2c(F)c(N)cc(C)c2C(F)(F)F)C3)C1 [Compound 11A, (7S)-7-(3-amino-2-fluoro-5-methyl-6-(trifluoromethyl)phenyl)-4-(3,8-diazabicyclo[3. 2.1]octane-3-yl)-2-(((S)-2-(methylene)tetrahydro-1H-pyrrolazin-7a(5H)-yl)methoxy)-7,8-dihydro-5H-thiopyrano[4,3-d]pyrimidine-6,6-dioxide]	≤ 0.01
(7S)-7-(6-amino-4-methyl-3-(trifluoromethyl)pyridin-2-yl)-2-(((2R,7AS)-2-fluorotetr ahydro-1H-pyrrolazin-7a(5H)-yl)methoxy)-4-((R)-3-hydroxy-3-methylpiperidin-1-yl) -7,8-dihydro-5H-thiopyrano[4,3-d]pyrimidine-6,6-dioxide [Compound 8A]	≤ 0.01
Cc1cc(N)c(F)c([C@@H]2Cc3nc(OC[C@@]45CCCN4C[C@H](F)C5)nc(N4C[C@H]5CC[C@@H](C4)N5)c3CS2(=O)=O)c1C(F)(F)F [Compound 34A, (7S)-7-(3-amino-2-fluoro-5-methyl-6-(trifluoromethyl)phenyl)-4-((1R,5S)-3,8-diazabicyclo[3.2.1]octane-3-yl)-2-(((2R,7AS)-2-fluorotetrahydro-1H-pyrrolazin-7a(5H)-yl)methoxy)-7,8-dihydro-5H-thiopyrano[4,3-d]pyrimidine 6,6-Dioxide]	≤ 0.01
Cc1cc(N)c(F)c([C@@H]2Cc3nc(OC[C@@]45CCCN4CC(=C(F)F)C5)nc(N4CC5CCC(C4)N5)c3CS2(=O)=O)c1C(F)(F)F [Compound 10A, (7S)-7-(3-amino-2-fluoro-5-methyl-6-(trifluoromethyl)phenyl)-4-(3,8-diazabicyclo[3. 2.1]octane-3-yl)-2-(((S)-2-(difluoromethylene)tetrahydro-1H-pyrrolazin-7a(5H)-yl)methoxy)-7,8-dihydro-5H-thiopyrano[4,3-d]pyrimidine-6,6-dioxide]	≤ 0.01
Cc1cc(N)nc([C@H]2Cc3nc(OC[C@@]45CCCN4C[C@H](F)C5)nc(N4C[C@H]5CC[C@@H](C4)N5)c3CS2(=O)=O)c1C(F)(F)F [Compound 3B, (7R)-7-(6-amino-4-methyl-3-(trifluoromethyl)pyridin-2-yl)-4-((1R,5S)-3,8-diazabicyclo[3.2.1]octane-3-yl)-2-(((2R,7AS)-2-fluorotetrahydro-1H-pyrrolazin-7a(5H)-yl)methoxy)-7,8-dihydro-5H-thiopyrano[4,3-d]pyrimidine 6,6-Dioxide]	≤ 0.01
Cc1cc(N)c(F)c([C@@H]2Cc3nc(OC[C@@]45CCCN4C[C@H](F)C5)nc(N4C[C@H]5CC[C@@H](C4)N5)c3CS2(=O)=O)c1C(F)(F)F [Compound 35A, (7S)-7-(3-amino-2-fluoro-5-methyl-6-(trifluoromethyl)phenyl)-4-((1R,5S)-3,8-diazabicyclo[3.2.1]octane-3-yl)-2-(((2R,7AS)-2-fluorotetrahydro-1H-pyrrolazin-7a(5H)-yl)methoxy)-7,8-dihydro-5H-thiopyrano[4,3-d]pyrimidine 6,6-Dioxide]	≤ 0.01
